Where two headings read alike, the source gives them in different places.
Experiments:
[1] = cited from earlier work; for concentrations ensuring good antioxidative activity in vitro: in vitro (Atanasiu et al., 1998)
[2] = conditions without oxidative stress (Atanasiu et al, 1996); cited from earlier work
isolated rat hearts = details: isolated rat heart, blood-free model (Chahine et al., 1991; Atanasiu et al, 1995), cited from earlier work
[3] = test system: ischemic isolated rat heart; experiment: Reperfusion-induced irreversible ventricular fibrillation in isolated rat heart submitted to partial ischemia-reperfusion (Langendorff); details: TRIAD (S2) 0.16×, CP 0.5 μM
Protocol: All experiments were conformed to rules of the Guide for the care and use of laboratory animals published by the US National Institutes of Health (NIH publication No 85-23, revised 1985). Adult male Wistar rats (225-250 g) were anaesthetized with sodium pentobarbitone intra-peritoneally (0.1 ml/100 g body weight) and then heparinized (500 UI intra-peritoneally). […]
Hearts were perfused for a 10 min control period with KH buffer, and then […] with KH+TRIAD for stabilization. […] At the end of this 10 min arterial occlusion period, reperfusion was initiated by cutting the ligature with a scalpel bled and rhythm disturbances were monitored for 15 min more. Left ventricular pressure and epicardial ECG were continuously monitored before and during ischemia and reperfusion. […]
Rat hearts were first perfused for 10 min with KH buffer and then for another 10 min with the same buffer containing TRIAD (S2) prepared as described above (section 2.2), until equilibration of cardiodynamic variables was achieved. […] Left ventricular pressure and epicardial ECG were continuously monitored before and during ischemia and reperfusion. […]
Arrhythmia were defined according to the Lambeth convention (Walker et al., 1988). ECG recordings were analyzed for the incidence of irreversible ventricular fibrillation (IVF) and for the time of normal sinus. […]

Albumin [reference compound]
concentrations ensuring good antioxidative activity in vitro [1]: 260 µM

Ceruloplasmin [CP]
electrophysiological effect [2]: prolongation of Effective Refractory Period (ERP) and of the action potential (AP) | cardioprotective concentrations (isolated rat hearts): up to 2 μM | cardiotoxic concentration (isolated rat hearts): ≥ 4 µM | cardiotoxic concentration (isolated rat hearts; listed as Ceruloplasmin): 4 µM | incidence of reperfusion-induced irreversible ventricular fibrillation (IVF) ([3]; isolated rat heart, 10 min regional ischemia then reperfusion, control 100%): 75% | cardioprotection ([3]; reduction of IVF incidence versus control (100%)): 25% | concentrations ensuring good antioxidative activity in vitro [1]: 2 to 15 µM | scavenging capacity compared with other antioxidants ([1]; in vitro, β-phycocyanin indicator): better scavenging capacity than SOD and than deferoxamine
